In publication PMC4968608 (Cancer Science, 2016):
Marks after values point to notes of the source that are not given here.

Experiments:
[1] = Plasma palbociclib concentrations with letrozole, part 2; type: in vivo, human; details: palbociclib 125 mg + letrozole 2.5 mg once daily, multiple doses, part 2, day 15 of cycles 1 and 2
[2] = system: estrogen receptor‐positive (ER+) luminal breast cancer cell lines; details: cited from earlier work
[3] = system: Japanese patients with advanced solid tumors; assay: Dose-limiting toxicity and MTD determination, part 1; type: in vivo, human; details: cycle 1; for DLT: stage IV, person
[4] = system: Japanese patients with advanced solid tumors; assay: Treatment-related adverse events, part 1; type: in vivo, human; details: for Any AE (treatment-related), All grades / Any AE (treatment-related), Grade 3/4 / Blood creatinine increased (treatment-related AE), All grades / Blood creatinine increased (treatment-related AE), Grade 3/4 / Diarrhea (treatment-related AE), All grades / Diarrhea (treatment-related AE), Grade 3/4 / Fatigue (treatment-related AE), All grades / Fatigue (treatment-related AE), Grade 3/4 / Lymphocytes decreased (treatment-related AE), All grades / Lymphocytes decreased (treatment-related AE), Grade 3/4 / Neutropenia (treatment-related), all grades / Neutropenia (treatment-related), grade 3/4 / Neutrophils decreased (treatment-related AE), All grades / Neutrophils decreased (treatment-related AE), Grade 3/4 / Platelets decreased (treatment-related AE), All grades / Platelets decreased (treatment-related AE), Grade 3/4 / WBCs decreased (treatment-related AE), All grades / WBCs decreased (treatment-related AE), Grade 3/4: part 1, n = 6
[5] = Plasma palbociclib pharmacokinetics, part 1; type: in vivo, human; details: for AUC(0-t): geometric mean (geometric %CV); for half-life: t½, arithmetic mean ± SD
advanced solid tumors = assay: Antitumor activity; type: in vivo, human
[6] = Trough plasma letrozole concentrations, part 2; type: in vivo, human
[7] = 100 mg, part 1, patient: breast cancer (first listed)

CC(=O)c1c(C)c2cnc(Nc3ccc(N4CCNCC4)cn3)nc2n(C2CCCC2)c1=O [Palbociclib]
Plasma palbociclib concentration, Predose [Ctrough], geometric mean [1]: 88.5 ng/mL | Antitumor activity when combined with tamoxifen [2]: synergistic antitumor activity | Retinoblastoma protein hyperphosphorylation [2]: inhibition of retinoblastoma protein hyperphosphorylation | Tumor cell growth [2]: arrest tumor cell growth | Patients with dose-limiting toxicity per dose level ([3]; 100 mg and 125 mg once daily, part 1, n = 6 each): one patient per dose level | DLT ([3]; 100 mg once daily, patient: colon cancer): None | DLT ([3]; 100 mg once daily, patient: rectal cancer): None | DLT ([3]; 125 mg once daily, patient: esophageal cancer): None | DLT ([3]; 125 mg once daily, patient: fibroma): None | DLT ([3]; 125 mg once daily, patient: rectal cancer): None | Any AE (treatment-related), All grades ([4]; 100 mg once daily): 6 (100) n (%) | Any AE (treatment-related), Grade 3/4 ([4]; 100 mg once daily): 4 (67) n (%) | Blood creatinine increased (treatment-related AE), All grades ([4]; 100 mg once daily): 2 (33) n (%) | Blood creatinine increased (treatment-related AE), Grade 3/4 ([4]; 100 mg once daily): 0 (0) n (%) | Diarrhea (treatment-related AE), All grades ([4]; 100 mg once daily): 0 (0) n (%) | Diarrhea (treatment-related AE), Grade 3/4 ([4]; 100 mg once daily): 0 (0) n (%) | Fatigue (treatment-related AE), All grades ([4]; 100 mg once daily): 0 (0) n (%) | Fatigue (treatment-related AE), Grade 3/4 ([4]; 100 mg once daily): 0 (0) n (%) | Lymphocytes decreased (treatment-related AE), All grades ([4]; 100 mg once daily): 1 (17) n (%) | Lymphocytes decreased (treatment-related AE), Grade 3/4 ([4]; 100 mg once daily): 1 (17) n (%) | Neutropenia (treatment-related), all grades ([4]; 100 mg once daily): 83% | Neutropenia (treatment-related), grade 3/4 ([4]; 100 mg once daily): 67% | Neutrophils decreased (treatment-related AE), All grades ([4]; 100 mg once daily): 5 (83) n (%) | Neutrophils decreased (treatment-related AE), Grade 3/4 ([4]; 100 mg once daily): 4 (67) n (%) | Platelets decreased (treatment-related AE), All grades ([4]; 100 mg once daily): 1 (17) n (%) | Platelets decreased (treatment-related AE), Grade 3/4 ([4]; 100 mg once daily): 0 (0) n (%) | WBCs decreased (treatment-related AE), All grades ([4]; 100 mg once daily): 4 (67) n (%) | WBCs decreased (treatment-related AE), Grade 3/4 ([4]; 100 mg once daily): 2 (33) n (%) | Any AE (treatment-related), All grades ([4]; 125 mg once daily): 5 (83) n (%) | Any AE (treatment-related), Grade 3/4 ([4]; 125 mg once daily): 4 (67) n (%) | Blood creatinine increased (treatment-related AE), All grades ([4]; 125 mg once daily): 0 (0) n (%) | Blood creatinine increased (treatment-related AE), Grade 3/4 ([4]; 125 mg once daily): 0 (0) n (%) | Diarrhea (treatment-related AE), All grades ([4]; 125 mg once daily): 2 (33) n (%) | Diarrhea (treatment-related AE), Grade 3/4 ([4]; 125 mg once daily): 0 (0) n (%) | Fatigue (treatment-related AE), All grades ([4]; 125 mg once daily): 2 (33) n (%) | Fatigue (treatment-related AE), Grade 3/4 ([4]; 125 mg once daily): 0 (0) n (%) | Lymphocytes decreased (treatment-related AE), All grades ([4]; 125 mg once daily): 3 (50) n (%) | Lymphocytes decreased (treatment-related AE), Grade 3/4 ([4]; 125 mg once daily): 2 (33) n (%) | Neutropenia (treatment-related), all grades ([4]; 125 mg once daily): 67% | Neutropenia (treatment-related), grade 3/4 ([4]; 125 mg once daily): 33% | Neutrophils decreased (treatment-related AE), All grades ([4]; 125 mg once daily): 4 (67) n (%) | Neutrophils decreased (treatment-related AE), Grade 3/4 ([4]; 125 mg once daily): 2 (33) n (%) | Platelets decreased (treatment-related AE), All grades ([4]; 125 mg once daily): 2 (33) n (%) | Platelets decreased (treatment-related AE), Grade 3/4 ([4]; 125 mg once daily): 1 (17) n (%) | WBCs decreased (treatment-related AE), All grades ([4]; 125 mg once daily): 5 (83) n (%) | WBCs decreased (treatment-related AE), Grade 3/4 ([4]; 125 mg once daily): 2 (33) n (%) | Grade ≥3 treatment-related non-hematologic AEs ([4]; all cohorts (100 mg, 125 mg, 125 mg + letrozole)): No grade ≥3 treatment‐related non‐hematologic AEs were observed | Deaths ([4]; whole study, 18 patients): No deaths | Dose proportionality of exposure ([5]; 125 mg vs 100 mg, part 1): higher than dose‐proportional exposure | Tmax ([5]; 125 mg, single dose, n = 6, median (range)): 4.0 (3.9–8.0) h | AUC(0-inf) ([5]; human, plasma, oral, 100 mg): 1040 ng·h/mL | Cmax ([5]; human, plasma, oral, 100 mg): 41.4 ng/mL | Tmax ([5]; human, plasma, oral, 100 mg): 5 h | AUC(0-t) ([5]; human, plasma, oral, 100 mg, AUClast, single dose, n = 6): 972 ng·h/mL | AUC(0-t) ([5]; human, plasma, oral, 100 mg, AUCτ (= AUC0–24), 100 mg once daily, multiple doses (day 8 of cycle 1), n = 6): 1280 ng·h/mL | AUC(0-t) ([5]; human, plasma, oral, 100 mg, AUCτ (= AUC0–24), single dose, n = 6): 548 ng·h/mL | half-life ([5]; human, plasma, oral, 100 mg, 100 mg once daily, multiple doses (day 8 of cycle 1), n = 6): 1430 ± 408 min | half-life ([5]; human, plasma, oral, 100 mg, single dose, n = 6): 1540 ± 318 min | AUC(0-inf) ([5]; human, plasma, oral, 125 mg): 2480 ng·h/mL | Tmax ([5]; human, plasma, oral, 125 mg): 4 to 5 h | concentration at 4 h ([5]; human, plasma, oral, 125 mg): 172 ng/mL | AUC(0-t) ([5]; human, plasma, oral, 125 mg, AUClast, single dose, n = 6): 2400 ng·h/mL | AUC(0-t) ([5]; human, plasma, oral, 125 mg, AUCτ (= AUC0–24), 125 mg once daily, multiple doses (day 8 of cycle 1), n = 6): 2840 ng·h/mL | AUC(0-t) ([5]; human, plasma, oral, 125 mg, AUCτ (= AUC0–24), single dose, n = 6): 1320 ng·h/mL | half-life ([5]; human, plasma, oral, 125 mg, 125 mg once daily, multiple doses (day 8 of cycle 1), n = 6): 1390 ± 462 min | half-life ([5]; human, plasma, oral, 125 mg, single dose, n = 6): 1430 ± 162 min | Plasma palbociclib concentration, Predose [Ctrough], geometric mean ([5]; palbociclib 125 mg alone, day 8 of part 1): 72.8 ng/mL | Patients with stable disease (advanced solid tumors; 100 mg, part 1, n = 6): three of six patients | Best response (advanced solid tumors; [7]): Indeterminate | Progression‐free survival (advanced solid tumors; [7]): 29 days | Progression‐free survival (advanced solid tumors; 100 mg, part 1, patient: breast cancer (second listed)): 75 days | Progression‐free survival (advanced solid tumors; 100 mg, part 1, patient: colon cancer): 29 days | Progression‐free survival (advanced solid tumors; 100 mg, part 1, patient: medullary thyroid cancer): 57 days | Progression‐free survival (advanced solid tumors; 100 mg, part 1, patient: ovarian cancer): 121 days | Progression‐free survival (advanced solid tumors; 100 mg, part 1, patient: rectal cancer): 223 days | Patients with stable disease (advanced solid tumors; 125 mg, part 1, n = 6): one of six patients | Progression‐free survival (advanced solid tumors; 125 mg, part 1, patient: acinar cell carcinoma of pancreas): 29 days | Progression‐free survival (advanced solid tumors; 125 mg, part 1, patient: breast cancer): 57 days | Progression‐free survival (advanced solid tumors; 125 mg, part 1, patient: esophageal carcinoma): 280 days | Progression‐free survival (advanced solid tumors; 125 mg, part 1, patient: fibroma): 28 days | Progression‐free survival (advanced solid tumors; 125 mg, part 1, patient: inflammatory myofibroblastic tumor): 28 days | Progression‐free survival (advanced solid tumors; 125 mg, part 1, patient: rectal cancer): 32 days | DCR (objective response or stable disease ≥24 weeks) (advanced solid tumors; 100 or 125 mg, part 1): 17% | Objective responses (CR or PR) (advanced solid tumors; 100 or 125 mg, part 1): not reported | Patients with extended stable disease (≥24 weeks) (advanced solid tumors; part 1, 100- or 125-mg dose (rectal and esophageal cancer)): two patients | Patients with stable disease (advanced solid tumors; part 1 overall (100 and 125 mg, n = 12)): Four patients had stable disease

N#Cc1ccc(C(c2ccc(C#N)cc2)n2cncn2)cc1 [letrozole]
Predose plasma letrozole concentration, geometric mean Ctrough ([6]; letrozole 2.5 mg alone, part 2, day 1 of cycles 2 and 3): 146 ^† ng/mL | Predose plasma letrozole concentration, geometric mean Ctrough ([6]; palbociclib 125 mg + letrozole 2.5 mg, part 2, day 15 of cycles 1 and 2): 131 ^‡ ng/mL
